Experimental data published in patent publication US8911715B2, “L-menthyl-N-(2-hydroxyphenyl)carbamate” (Symrise AG, priority 2008, dated 2014).
≈ marks a conversion by molar mass, not a printed value.

How the values were obtained:
[1] = tested on: Aspergillus niger; assay: MIC determination, series dilution test (microtiter plate) / agar dilution method; assay type: cell-based
Procedure: (§1) The evidence of the antimicrobial action against body perspiration odor bacteria of the substances synthesized according to the examples was implemented with the aid of the agar dilution method according to DIN 58 940/ICS and DIN 58 944/ICS. Petri dishes of 5.5 cm in diameter were filled with 8.7 ml freshly produced Mueller-Hinton-agar or Wilkins-Chalgren-agar bouillon kept liquid at 50° C., supplemented with 10 g agar-agar/liter) to which the various concentrations of the thinned samples were added in 3.3% by volume=0.3 ml.
2.6 ml of the 3.3% samples were diluted with ethanol (96%). […]
(§2) All the test germ suspensions were diluted again with sterile bouillon 1:10 and the germ count thereof determined in the surface method per spiralometer (results: see Table 1).
(§3) The lowest active ingredient concentration was regarded as the MIC (minimal inhibition concentration), at which no growth is macroscopically present. Minimal, hardly visible growth or a few small individual colonies were evaluated as inhibition.
The minimum inhibition concentration (MIC) of the compound according to the invention, was determined against various cosmetically relevant germs in the series dilution test (H. Brandis, G. Pulverer: Lehrbuch der Medizinischen Mikrobiologie, 6th revised edition, Gustav Fischer Verlag Stuttgart, 1988; page 200 et seq.). […]

[2] = ABTS assay, cell-free in vitro test of antioxidant capacity; assay type: biochemical; set-up: Mean antioxidant capacity (AOX): unit not given here; conditions: for IC50: ABTS decoloration at 734 nm, read-out: IC50 (antioxidant concentration in which 50% of the cationic radicals are reduced); for IC50 / Mean antioxidant capacity (AOX): mean of two independent tests
Source text: In order to check to what extent L-menthyl-N-(2-hydroxyphenyl)carbamate also has antioxidant potential, the substance was investigated with the aid of the ABTS assay.
The ABTS assay is a cell-free in vitro test for evaluating the antioxidant capacity (literature: Re R, Pellegrini N, Proteggente A, Pannala A, Yang M, Rice-Evans C. 1999. “Antioxidant activity applying an improved ABTS radical cation decolorization assay”; Free Radic. Bio. Med. 26: 1231-7). The assay uses the inherent color of a solution produced with the cationic radical 2,2′-azinobis(3-ethylbenzothiazoline 6-sulfonic acid) (ABTS+) and potassium persulfate, which solution is decolored by the addition of antioxidants (reduction of the cationic radical). This decoloration can be measured photometrically at 734 nm.
The test is carried out in 96-well microtiter plates. The antioxidant capacity is expressed in IC50 values (antioxidant concentration in which 50% of the cationic radicals are reduced). All the ABTS test results result from two independent tests and are shown as mean values with associated mean value deviation.

[3] = tested on: Staphylococcus aureus; assay: MIC determination, series dilution test (microtiter plate) / agar dilution method; assay type: cell-based; conditions: ATCC6538; Staphylococcus aureus ATCC 6538; 16 hours incubation, clouding at 620 nm
Procedure: as §1
(§4) 2.6 ml of the 3.3% samples were diluted with ethanol (96%). By continuous 2:1 dilution with ethanol (96%) the further test concentrations of the respective series of dilution, which were placed in the form of geometric rows, were produced.
(§5) By further dilution with the test agar (0.3 ml sample or corresponding dilutions+8.7 ml agar), 30 times lower end concentrations were achieved (corresponds to a starting concentration of 1,100 ppm in each case). The concentrations disclosed below relate to the pure substance and are converted into ppm. […]
as §2, §3
(§6) The minimum inhibition concentration (MIC) of the compound according to the invention, was determined against various cosmetically relevant germs in the series dilution test (H. Brandis, G. Pulverer: Lehrbuch der Medizinischen Mikrobiologie, 6th revised edition, Gustav Fischer Verlag Stuttgart, 1988; page 200 et seq.). The test was transferred to the microtiter plate format and the concentration was determined as the MIC value, in which after 16 hours of incubation, at the wavelength of 620 nm, no significant rise in the clouding was observed relative to the controls.

[4] = tested on: Corynebacterium xerosis; assay: as above; assay type: cell-based
Procedure: as §1, §4, §5, §2, §3, §6

Row | SMILES | MIC ([1]; ATCC16404, Aspergillus niger ATCC 16404, 16 hours incubation, clouding at 620 nm) [µg/mL] | activity relative to mould fungi (in words) ([1]; mould fungi such as Aspergillus niger) | IC50 [2] [µM] | antioxidant capacity compared with reference alpha-tocopherol (in words) ([2]; ABTS investigations) | Mean antioxidant capacity (AOX) ([2]; concentration 0.001 mM) | Mean antioxidant capacity (AOX) ([2]; concentration 0.0025 mM) | Mean antioxidant capacity (AOX) ([2]; concentration 0.005 mM) | Mean antioxidant capacity (AOX) ([2]; concentration 0.025 mM) | Mean antioxidant capacity (AOX) ([2]; concentration 0.05 mM) | MIC [3] [µg/mL] | MIC ([4]; ATCC7711, Corynebacterium xerosis ATCC 7711, 16 hours incubation, clouding at 620 nm) [µg/mL] | inhibition of the growth (in words) ([4]; gram-positive bacteria such as corynebacterium xerosis, very small concentrations)
1 | CC(C)[C@@H]1CC[C@@H](C)C[C@H]1OC(=O)Nc1ccccc1O [L-menthyl-N-(2-hydroxyphenyl)carbamate] | > 1000 | inactive | 19 | comparable with the antioxidant capacity of the reference substance alpha-tocopherol | 3.58 | 8.84 | 17.50 | 63.15 | 96.56 | 8 (≈ 27.5 µM) | 8 (≈ 27.5 µM) | clear inhibition of the growth
2 | Cc1c(C)c2c(c(C)c1O)CC[C@@](C)(CCC[C@H](C)CCC[C@H](C)CCCC(C)C)O2 [alpha-tocopherol, reference compound] | – | – | 25 | – | 0.56 | 4.16 | 10.83 | 51.38 | 94.88 | – | – | –
